No end group written: not given here.
T1: human TAS1R2-R317P/TAS1R3-WT (Homo sapiens, UniProt Q7RTX0+Q8TE23, R317P)
T1 construct: expressed in transfected cells; host or cells: HEK293T-Gα16gust44
T1 sequence (Q8TE23 20-839 R317P): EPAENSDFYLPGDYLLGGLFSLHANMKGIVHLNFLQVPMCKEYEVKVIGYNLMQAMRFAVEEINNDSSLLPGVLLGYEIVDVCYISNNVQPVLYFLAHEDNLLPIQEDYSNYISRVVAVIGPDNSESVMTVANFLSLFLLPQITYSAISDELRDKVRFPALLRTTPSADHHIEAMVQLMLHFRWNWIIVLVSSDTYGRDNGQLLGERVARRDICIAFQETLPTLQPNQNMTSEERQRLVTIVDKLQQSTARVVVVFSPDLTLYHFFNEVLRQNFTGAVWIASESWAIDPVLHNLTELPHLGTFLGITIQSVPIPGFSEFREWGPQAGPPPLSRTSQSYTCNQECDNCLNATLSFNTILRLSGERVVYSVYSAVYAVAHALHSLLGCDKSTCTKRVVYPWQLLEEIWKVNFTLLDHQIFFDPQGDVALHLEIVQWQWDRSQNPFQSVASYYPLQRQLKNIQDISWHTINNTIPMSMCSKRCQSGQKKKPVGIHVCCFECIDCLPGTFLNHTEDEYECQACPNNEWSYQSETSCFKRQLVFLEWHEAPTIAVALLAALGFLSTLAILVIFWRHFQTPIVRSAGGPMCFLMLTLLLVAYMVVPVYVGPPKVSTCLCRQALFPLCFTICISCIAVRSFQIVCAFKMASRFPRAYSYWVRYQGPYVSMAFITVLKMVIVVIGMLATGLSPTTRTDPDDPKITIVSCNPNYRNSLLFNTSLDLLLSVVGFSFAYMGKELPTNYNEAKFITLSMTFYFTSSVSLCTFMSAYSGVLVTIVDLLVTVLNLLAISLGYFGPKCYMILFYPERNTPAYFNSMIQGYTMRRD
T1 sequence (Q7RTX0 21-852): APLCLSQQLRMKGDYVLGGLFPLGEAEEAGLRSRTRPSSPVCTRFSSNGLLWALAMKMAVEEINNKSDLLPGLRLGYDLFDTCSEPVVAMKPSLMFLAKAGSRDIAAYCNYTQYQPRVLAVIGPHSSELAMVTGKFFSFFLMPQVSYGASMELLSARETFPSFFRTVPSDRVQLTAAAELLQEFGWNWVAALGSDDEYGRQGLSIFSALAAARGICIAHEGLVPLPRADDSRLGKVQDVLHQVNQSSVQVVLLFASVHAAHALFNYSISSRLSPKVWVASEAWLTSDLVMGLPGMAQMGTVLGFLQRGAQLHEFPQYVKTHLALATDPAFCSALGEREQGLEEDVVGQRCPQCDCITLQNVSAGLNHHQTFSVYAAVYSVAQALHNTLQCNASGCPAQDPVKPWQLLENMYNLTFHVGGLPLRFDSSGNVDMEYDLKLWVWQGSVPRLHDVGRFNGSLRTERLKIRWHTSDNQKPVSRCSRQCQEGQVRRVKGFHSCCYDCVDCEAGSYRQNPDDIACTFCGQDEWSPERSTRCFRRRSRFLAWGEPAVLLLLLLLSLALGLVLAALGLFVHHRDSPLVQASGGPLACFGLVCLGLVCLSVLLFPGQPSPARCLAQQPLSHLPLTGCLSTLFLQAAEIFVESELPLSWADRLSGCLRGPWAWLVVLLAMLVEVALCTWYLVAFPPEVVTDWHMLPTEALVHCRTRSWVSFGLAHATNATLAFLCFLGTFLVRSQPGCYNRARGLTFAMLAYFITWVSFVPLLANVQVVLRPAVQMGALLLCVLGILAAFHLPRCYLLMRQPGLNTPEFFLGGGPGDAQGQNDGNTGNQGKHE


Target: T1, human TAS1R2-R317P/TAS1R3-WT
Assay: Calcium mobilisation assay, TAS1R2 variant R317P with TAS1R3-WT
Assay type: cell-based
Conditions: for Max ΔF/F0: maximal signal amplitude
Source text: The coding sequences for TAS1R2 and TAS1R3 were commercially synthesised, and the human codon was optimised for expression in human cells. The coding sequences of human TAS1R2 and TAS1R3 were subcloned and inserted into the mammalian expression vectors pcDNA6/myc-HisA and pcDNA4/myc-HisA (Invitrogen; Thermo Fisher Scientific; Illkirch, France) between the EcoRI and NotI restriction sites, generating the plasmids pcDNA6-TAS1R2 and pcDNA4-TAS1R3, respectively. To increase protein expression in mammalian cells, an upstream start codon was used, which was a sequence called MAX, corresponding to the QBI SP163 element also described in pcDNA4-HisMax (Invitrogen; Thermo Fisher Scientific; Illkirch, France). To measure the expression level of the receptor by immunohistochemistry, we used the FLAG sequence ([…]) in the C-terminal position, which encodes the FLAG tag epitope. SNP variants of TAS1R2 and TAS1R3 were constructed based on […], respectively, using site-directed mutagenesis (Genewiz; Leipzig, Germany).
The HEK293T cells were kindly provided by Jay P. Slack (Givaudan Flavors Corporation; Cincinnati, OH, USA). HEK293T cells stably transfected with Gα16gust44 [43, 67] were seeded in poly-D-lysine-coated clear-bottom black 96-well plates (0.35 × 10^5 cells/well) in high-glucose DMEM supplemented with 2 mM GlutaMAX, 10% dialysed foetal bovine serum with penicillin/streptomycin and G418 (400 μg/mL) at 37 °C and 6.3% CO2 in a humidified atmosphere as previously reported. […] As a negative control, HEK293T cells were mock-transfected with the empty expression vector. After a further 24 h of incubation, the HEK293T cells were washed with C1 buffer (130 mM NaCl, 5 mM KCl, 10 mM HEPES pH 7.4 and 2 mM CaCl2). The 96-well plates containing the cells were then stimulated with sweet-tasting compounds. […] Different concentration ranges were tested depending on the sweet compound injected. The Ca^2+ changes were expressed as fractional changes in fluorescent light intensity: ΔF/F = (F − F0)/F0, where F was the fluorescent light intensity at each point, and F0 was the value of emitted fluorescent light prior to stimulus application. To calculate dose–response relationships, the changes in fluorescence upon stimulus application were averaged, mock-subtracted and baseline-corrected. The dose–response data obtained were adjusted using a 4-parameter logistic equation. The half-maximal effective concentrations (EC50 values) and maximal signal amplitudes were calculated using SigmaPlot software (version 15.0) (Systat Software; San Jose, CA, USA).
For in vitro calcium mobilisation assay performed on hTAS1R2-SNPs, hTAS1R3-SNPs and mTAS1R3-I60T, 6 to 7 concentrations were tested for each sweet compound, plus buffer alone. All concentration–receptor combinations were measured in duplicate, and each experiment was repeated at least 4 times (8 wells/concentration). Results were expressed for each concentration as ΔF/F mean ± SEM and represented as dose–response curves.

Molecule	EC50 [µM]	R1 = Variant EC50/WT EC50	Max ΔF/F0
O=S(=O)(O)NC1CCCCC1 [Cyclamate, cyclamate]	2860 ± 62	–	–
C[C@H](CC[C@@H](O[C@@H]1O[C@H](CO[C@@H]2O[C@H](CO)[C@@H](O)[C@H](O)[C@H]2O)[C@@H](O)[C@H](O)[C@H]1O[C@@H]1O[C@H](CO)[C@@H](O)[C@H](O)[C@H]1O)C(C)(C)O)[C@H]1CC[C@@]2(C)[C@@H]3CC=C4[C@@H](CC[C@H](O[C@@H]5O[C@H](CO[C@@H]6O[C@H](CO)[C@@H](O)[C@H](O)[C@H]6O)[C@@H](O)[C@H](O)[C@H]5O)C4(C)C)[C@]3(C)[C@H](O)C[C@]12C [Mogroside V, mogroside V]	27.9 ± 2.5	1.6	1.51 ± 0.05
C=C(C)[C@@H]1CC=C(/C=N/O)CC1 [Perillartine, perillartine]	35.2 ± 2.2	2.0	1.16 ± 0.03
brazzein (QDKCKKVYENYPVSKCQLANQCNYDCKLDKHARSGECFYDEKRNLQCICDYCEY; ends and bridges not checked; cysteine pairing not given here; UniProt P56552 1-54, looked up) [sweet-tasting protein obtained by recombinant production using the yeast Pichia pastoris]	–	2.5	0.91 ± 0.02
thaumatin	–	2.5	0.42 ± 0.01

Results, then the molecule that gave them:

EC50 [µM]	R1 = Variant EC50/WT EC50	Max ΔF/F0	Molecule
685 ± 41	1.0	0.42 ± 0.01	CC1=CC(=O)NS(=O)(=O)O1 [Acesulfame K, acesulfame K]
171 ± 26.2	2.2	0.58 ± 0.04	COc1ccc(CCC(=O)c2c(O)cc(O[C@@H]3O[C@H](CO)[C@@H](O)[C@H](O)[C@H]3O[C@@H]3O[C@@H](C)[C@H](O)[C@@H](O)[C@H]3O)cc2O)cc1O [NHDC, neohesperidin dihydrochalcone]
0.86 ± 0.16	1.0	0.63 ± 0.04	COC(=O)[C@H](Cc1ccccc1)NC(=O)[C@H](CC(=O)O)NCCC(C)(C)C [Neotame]
26.9 ± 0.5	1.6	1.19 ± 0.01	C=C1C[C@@]23CC[C@H]4[C@@](C)(CCC[C@@]4(C)C(=O)O[C@@H]4O[C@H](CO)[C@@H](O)[C@H](O[C@@H]5O[C@H](CO)[C@@H](O)[C@H](O)[C@H]5O)[C@H]4O[C@@H]4O[C@H](CO)[C@@H](O)[C@H](O)[C@H]4O)[C@@H]2CC[C@]1(O[C@@H]1O[C@H](CO)[C@@H](O)[C@H](O[C@@H]2O[C@H](CO)[C@@H](O)[C@H](O)[C@H]2O)[C@H]1O[C@@H]1O[C@H](CO)[C@@H](O)[C@H](O)[C@H]1O)C3 [Rebaudioside M, rebaudioside M]
98 ± 19	1.1	0.76 ± 0.06	OC[C@H]1O[C@H](O[C@]2(CCl)O[C@H](CCl)[C@@H](O)[C@@H]2O)[C@H](O)[C@@H](O)[C@H]1Cl [Sucralose]
18.9 ± 0.7	–	–	thaumatin (protein, Eight disulfides, sweet-tasting plant protein, E957) ATFEIVNRCSYTVWAAASKGDAALDAGGRQLNSGESWTINVEPGTKGGKIWARTDCYFDDSGSGICKTGDCGGLLRCKRFGRPPTTLAEFSLNQYGKDYIDISNIKGFNVPMDFSPTTRGCRGVRCAADIVGQCPAKLKAPGGGCNDACTVFQTSEYCCTTGKCGPTEYSRFFKRLCPDAFSYVLDKPTTVTCPGSSNYRVTFCPTA
